Source: patent US20170252442A1, “PHOTOHEXER COMPOUNDS AND PHARMACEUTICAL COMPOSITION AND USE THEREOF” (RAINBOW PHARMATECH LLC, priority 2014, published 2017)

Tests used:
[1] = test system: Eca-109 cells; assay: MTT assay, photodynamic therapy on Eca-109 cells; assay type: cell-based, human
Text: (§1) The cells in logarithmic growth phase were collected and inoculated on 24-well culture plates. When reaching 70%-80% confluence, cells were divided randomly into the following groups: control (the parallel control group without photosensitizer and irradiation), irradiation (irradiation treatment alone without photosensitizer); (photosensitizer treatment alone without irradiation), photodynamic treatment (treatment by photosensitizer in combination with irradiation). For the photosensitizer alone treatment group and photodynamic treatment group, an appropriate amount of Photohexer-1 (P-1) or Photohexer-2 (P-2) was respectively added away from light to give a final concentration of 0.8, 1.6, 3.2, 6.4 μM. Each group set 3 replicates. Cells were incubated with the active agent, different treatments were carried out according to the grouping. […] After treatment and digestion of each group of cells, it was inoculated into a 96-well plate at 100 μL/well, and four wells were set for each treatment. MTT assay was performed after 24 h from inoculation: 20 μL MTT solution was added to each well under the condition away from light, and the culture was continued for 4 hours. 150 μL DMSO was added to each well after discarding the supernatant. After 15 min of dissolution, the absorbance value (OD value) was measured using a microplate reader and the relative survival rate of cells was calculated according to the following formula: […]

[2] = test system: Caco2 cells; assay: MTT assay, photodynamic therapy on Caco2 cells; assay type: cell-based, human
Text: as §1

[3] = test system: 7721 cells; assay: MTT assay, photodynamic therapy on 7721 cells; assay type: cell-based, human
Text: as §1

[4] = test system: the cell lines; assay: MTT assay, summary over the cell lines (photosensitizer alone); assay type: cell-based; conditions: without light irradiation; selected drug concentration range (0.8-6.4 μM)
Text: The cells in logarithmic growth phase were collected and inoculated on 24-well culture plates. When reaching 70%-80% confluence, cells were divided randomly into the following groups: control (the parallel control group without photosensitizer and irradiation), irradiation (irradiation treatment alone without photosensitizer); (photosensitizer treatment alone without irradiation), photodynamic treatment (treatment by photosensitizer in combination with irradiation). For the photosensitizer alone treatment group and photodynamic treatment group, an appropriate amount of Photohexer-1 (P-1) or Photohexer-2 (P-2) was respectively added away from light to give a final concentration of 0.8, 1.6, 3.2, 6.4 μM. Each group set 3 replicates. Cells were incubated with the active agent, different treatments were carried out according to the grouping. Three different light intensities were selected for the photodynamic treatment group, which were 2.6, 5.2 and 12.4 J/cm^2, respectively. After treatment and digestion of each group of cells, it was inoculated into a 96-well plate at 100 μL/well, and four wells were set for each treatment. […] After 15 min of dissolution, the absorbance value (OD value) was measured using a microplate reader and the relative survival rate of cells was calculated according to the following formula: […]

[5] = test system: SW-480 cells; assay: MTT assay, photodynamic therapy on SW-480 cells; assay type: cell-based, human
Text: as §1

[6] = 0.8 μM alone treatment, without irradiation
[7] = 0.8 μM combined with 2.6 J/cm^2 light irradiation
[8] = 0.8 μM combined with 5.2 J/cm^2 light irradiation
[9] = 0.8 μM combined with 10.4 J/cm^2 light irradiation
[10] = 1.6 μM alone treatment, without irradiation
[11] = 1.6 μM combined with 2.6 J/cm^2 light irradiation
[12] = 1.6 μM combined with 5.2 J/cm^2 light irradiation
[13] = 1.6 μM combined with 10.4 J/cm^2 light irradiation
[14] = 3.2 μM alone treatment, without irradiation
[15] = 3.2 μM combined with 2.6 J/cm^2 light irradiation
[16] = 3.2 μM combined with 5.2 J/cm^2 light irradiation
[17] = 3.2 μM combined with 10.4 J/cm^2 light irradiation
[18] = 6.4 μM alone treatment, without irradiation
[19] = 6.4 μM combined with 2.6 J/cm^2 light irradiation
[20] = 6.4 μM combined with 5.2 J/cm^2 light irradiation
[21] = 6.4 μM combined with 10.4 J/cm^2 light irradiation

C=CC1=C(C)c2cc3[nH]c(cc4nc(cc5[nH]c(cc1n2)c(C)c5CCC(=O)[O-])C(CCC(=O)[O-])=C4C)c(C)c3C(C)OCCCCCC.[Na+].[Na+] (stereo not shown) [Photohexer P-1, 2-(1-hexyloxyethyl)-6,7-bis(propionatesodium)-1,3,5,8-tetramethyl-4-vinylporphyrin]
photosensitive toxicity compared between P-1 and P-2 [1]: significantly stronger toxicity than that of P-2 | Cell survival rate [1, 6]: 99.32 ± 3.43% | Cell survival rate [1, 7]: 84.64 ± 3.79% | Cell survival rate [1, 8]: 74.34 ± 4.23% | Cell survival rate [1, 9]: 60.09 ± 4.54% | Cell survival rate [1, 10]: 97.28 ± 2.48% | Cell survival rate [1, 11]: 64.63 ± 2.39% | Cell survival rate [1, 12]: 66.40 ± 3.12% | Cell survival rate [1, 13]: 41.05 ± 3.47% | Cell survival rate [1, 14]: 92.81 ± 1.37% | Cell survival rate [1, 15]: 44.02 ± 2.05% | Cell survival rate [1, 16]: 41.43 ± 1.27% | Cell survival rate [1, 17]: 36.89 ± 2.26% | Cell survival rate [1, 18]: 80.68 ± 1.04% | Cell survival rate [1, 19]: 42.24 ± 1.01% | Cell survival rate [1, 20]: 37.97 ± 1.04% | Cell survival rate [1, 21]: 35.04 ± 1.34% | Cell survival rate [2, 6]: 99.34 ± 3.40% | Cell survival rate [2, 7]: 95.31 ± 3.86% | Cell survival rate [2, 8]: 93.10 ± 3.96% | Cell survival rate [2, 9]: 88.18 ± 4.24% | Cell survival rate [2, 10]: 97.36 ± 2.42% | Cell survival rate [2, 11]: 91.33 ± 2.69% | Cell survival rate [2, 12]: 89.01 ± 2.88% | Cell survival rate [2, 13]: 87.63 ± 3.49% | Cell survival rate [2, 14]: 95.34 ± 1.67% | Cell survival rate [2, 15]: 89.49 ± 2.15% | Cell survival rate [2, 16]: 87.46 ± 1.67% | Cell survival rate [2, 17]: 84.32 ± 2.76% | Cell survival rate [2, 18]: 83.33 ± 1.24% | Cell survival rate [2, 19]: 81.65 ± 1.07% | Cell survival rate [2, 20]: 74.26 ± 1.14% | Cell survival rate [2, 21]: 66.34 ± 1.17% | Cell survival rate [3, 6]: 101.56 ± 4.08% | Cell survival rate [3, 7]: 97.88 ± 4.08% | Cell survival rate [3, 8]: 95.52 ± 3.42% | Cell survival rate [3, 9]: 94.75 ± 4.13% | Cell survival rate [3, 10]: 100.75 ± 4.14% | Cell survival rate [3, 11]: 93.31 ± 3.99% | Cell survival rate [3, 12]: 92.36 ± 2.91% | Cell survival rate [3, 13]: 91.35 ± 3.59% | Cell survival rate [3, 14]: 97.51 ± 3.98% | Cell survival rate [3, 15]: 94.92 ± 3.80% | Cell survival rate [3, 16]: 92.13 ± 2.77% | Cell survival rate [3, 17]: 88.59 ± 2.96% | Cell survival rate [3, 18]: 96.52 ± 3.94% | Cell survival rate [3, 19]: 94.42 ± 3.87% | Cell survival rate [3, 20]: 90.25 ± 4.07% | Cell survival rate [3, 21]: 84.98 ± 1.97% | toxic and side effects ([3]; alone or in combination with light irradiation): no obvious toxic and side effects | cytotoxicity of alone treatment [4]: did not produce significant cytotoxicity | Cell survival rate [5, 6]: 101.14 ± 3.20% | Cell survival rate [5, 7]: 99.72 ± 3.16% | Cell survival rate [5, 8]: 95.61 ± 3.11% | Cell survival rate [5, 9]: 89.28 ± 3.01% | Cell survival rate [5, 10]: 100.83 ± 2.47% | Cell survival rate [5, 11]: 97.08 ± 2.89% | Cell survival rate [5, 12]: 94.55 ± 2.77% | Cell survival rate [5, 13]: 85.85 ± 2.68% | Cell survival rate [5, 14]: 98.02 ± 2.59% | Cell survival rate [5, 15]: 96.00 ± 2.24% | Cell survival rate [5, 16]: 85.27 ± 1.89% | Cell survival rate [5, 17]: 65.70 ± 2.01% | Cell survival rate [5, 18]: 91.27 ± 1.09% | Cell survival rate [5, 19]: 77.99 ± 1.22% | Cell survival rate [5, 20]: 65.38 ± 1.32% | Cell survival rate [5, 21]: 57.31 ± 1.03%
